The text below walks through data of patent US11110158B2, “Prostate-associated antigens and vaccine-based immunotherapy regimens” (Pfizer Inc., priority 2012, dated 2021).

The subject of one test is human PSMA. Briefly: IFNγ ELISPOT of splenocytes, PSMA DNA constructs by PMED in Pasteur (HLA A2/DR1) mice. The format is in vivo, mouse. The conditions noted are these: positive SFC>50. An excerpt: Two human HLA transgenic mouse models were used to evaluate the presentation of various PSMA antigens by different HLAs and a human PSMA transgenic mouse model was used to assess the breaking of immune tolerance to human PSMA. The first HLA transgenic mouse model utilizes the HLA A2/DR1 mice (from the Pasteur Institute, Paris, France; also referred to as “Pasteur mice”). […] The second HLA transgenic mouse model uses mice that are knock in with human HLA A24 that is covalently linked to the human β-2-microglobulin at the H2bk locus. […] This model allows evaluation of antigen presentation in the context of human HLA A24.
Eight-to-10 week-old transgenic mice were immunized using PMED method with various PSMA DNA constructs in a prime/boost/boost regimen, two weeks apart between each vaccination. Alternatively, mice were primed with adenovirus vectors encoding the PSMA antigen at 1×10^9 viral particles in 50 μl (PBS) by intramuscular injection. The adenovirus vector (pShuttle-CMV vector from Stratagene) was modified to contain NheI and BgIII restriction sites within the multiple cloning site. The DNA encoding human PSMA modified was then restriction digested with NheI and BgIII, ligated into this vector and sequence confirmed. The pShuttle human PSMA modified vector was then recombined with the pAdEasy-1 vector and virus was propagated according to the AdEasy system (Stratagene). Twenty-days later, they were boosted with PMED as described above. In each of the regimens used, antigen specific T cell response was measured 7 days after the last immunization in an interferon-gamma (IFNγ) ELISPOT assay. The ELISPOT assay is similar to the sandwich enzyme-linked immunosorbent assay (ELISA). Briefly, a capture antibody specific to IFNγ BD Bioscience, #51-2525kc) is coated onto a polyvinylidene fluoride (PVDF) membrane in a microplate overnight at 4° C. The plate is blocked with serum/protein to prevent nonspecific binding to the antibody. After blocking, effector cells (such as splenocytes isolated from PSMA immunized mice) and targets (such as PSMA peptides from peptide library, target cells pulsed with peptides or tumor cells expressing the relevant antigens) or mitogen (which will stimulate splenocytes non-specifically to produce IFNγ[…] are added to the wells and incubated overnight at 37° C. in a 5% CO2 incubator. Cytokine secreted by effector cells are captured by the coating antibody on the surface of the PVDF membrane. After removing the cells and culture media, 100 μl of a biotinylated polyclonal anti-mouse IFNγ antibody (0.5 mg/ml-BD Bioscience, #51-1818 kz) was added to each of the wells for detection. The spots are visualized by adding streptavidin-horseradish peroxidase (HRP, BD Bioscience, #557630) and the precipitate substrate, 3-amino-9-ethylcarbazole (AEC), to yield a red color spot. Each spot represents a single cytokine producing T cell. In general, in the studies disclosed here the ELISpot assay was set up as follows: 5×10^5 splenocytes from PSMA immunized mice were cultured (1) in the presence of PSMA specific peptides derived from a PSMA peptide library (see Table 16) made of 15-amino acid peptides overlapping by 11 amino acids, (2) with known HLA A2.1 restricted PSMA specific peptides, or (3) with tumor cells. To measure the recognition of endogenous antigen presentation, splenocytes were cultured with a human HLA A2 prostate cancer cells (i.e. LNCaP, available from ATCC) that naturally express PSMA or cultured with HLA A2 tumor cells transduced with adenovirus encoding and thus expressing the human PSMA modified antigen. In addition, human PSMA ECD protein was added to the ELISpot assay to measure specifically CD4 IFNγ[…] producing cells. For controls where appropriate, HLA A2 restricted HER-2 specific peptide p168-175 or tumor cells not expressing PSMA or irrelevant protein such as BSA were used as a negative control in the IFNγ […]ELISpot assay. […]

The test system of another test is LNCaP. The test is described as follows: FACS cell binding assay of sera from PSMA vaccinated mice. It counts as cell-based, human. The conditions noted are these: Table 4. Here is the method:
Various prostate cancer cell lines were used for this assay. […] The cell binding assay was performed as follows: LNCaP and PC3 cells (or TRAMP-C2PSMA and TRAMP C2) were plated in separate wells at 2×10^5 cells/well (50 μL) in a 96 well plate. Sera from PSMA vaccinated mice, as described in […], were diluted 1:50 with FACS buffer (PBS pH 7.4, 1% FBS, 25 mM HEPES, and 1 mM EDTA). Fifty μL of diluted J591-A antibody (mouse anti-human PSMA antibody, clone J591-A from ATCC) were added to the diluted test sera or FACS buffer (unstained samples) to achieve the appropriate cell numbers per well in the staining plate. All was mixed by pipetting and then kept on ice for 20 min. The cells were washed twice with FACS buffer; each wash was by centrifugation at 1200 RPM at 5° C. for 5 minutes. Fifty μL of secondary staining solution were added containing a 1:200 dilution of PE-labeled goat anti-mouse Ig (Sigma, cat P9670-5) and 0.25 μl of Live/Dead Aqua stain (Invitrogen, cat. #L34957) to each of the cell containing wells and kept on ice for 20 min. Cells were washed twice as described earlier. Washed cell pellets were resuspended in 125 uL FACS buffer and then 75 uL 4% paraformaldehyde solution were added to each well to fix the cells. Samples were kept on ice and protected from light for at least 15 min. Samples were run on FACS Canto II. Ten thousand live cell events were recorded for each sample. […]

With “PSMA modified: membrane-bound polypeptide of amino acids 15-750 of human PSMA, SEQ ID NO: 9; tested as DNA construct”, the “IFN-γ SFC/1 × 10^6 splenocytes” value in the test with human PSMA (Table 2, HLA A2.1 restricted peptide PSMA p275, ( ) = standard deviation) is 304 (21) SFC/1 × 10^6 splenocytes; with human PSMA (Table 2, HLA A2.1 restricted peptide PSMA p627, ( ) = standard deviation) it was 222 (14) SFC/1 × 10^6 splenocytes; in the test on human PSMA (Table 2, HLA A2.1 restricted peptide PSMA p662, ( ) = standard deviation), 925.1 (77) SFC/1 × 10^6 splenocytes; in the test on human PSMA (Table 2, HLA A2.1 restricted peptide PSMA p663, ( ) = standard deviation), 1524.9 (45) SFC/1 × 10^6 splenocytes; with human PSMA (Table 2, PC3 tumor cells (no PSMA, negative control), ( ) = standard deviation) it was 1 (1) SFC/1 × 10^6 splenocytes; in the test with human PSMA (Table 2, PSMA ECD protein, ( ) = standard deviation) it was 731 (16) SFC/1 × 10^6 splenocytes. The “IFN-γ SFC/1 × 10^6 splenocytes” value is 96 (12) SFC/1 × 10^6 splenocytes with human PSMA (Table 2, PSMA+ HLA A2.1 LNCaP tumor cells, ( ) = standard deviation) and 2 (4) SFC/1 × 10^6 splenocytes in the test with human PSMA (Table 2, target peptide PSA p64, ( ) = standard deviation). For the same substance, the “Fold over background Average (+/−SD)” value in the test with LNCaP (binding of serum anti-PSMA antibodies (1:50) to human prostate cancer cells LNCaP by FACS, background PC3) is reported as 6.01 (0.38). Also, the “# of positive” value with LNCaP (mice with serum binding to LNCaP by FACS / N) was 4/4.
